Laboratory results taken from ChEMBL document CHEMBL6071133, “Discovery of novel penetrating peptides able to target human leukemia and lymphoma for enhanced PROTAC delivery” (Eur J Med Chem, 2024).
Active and inactive are the calls of the source. The rule behind the calls is not given here. Square brackets hold non-standard residues; d marks the D form. Peptide text beside a SMILES is read from it. Bta = N[C@@H](Cc1csc2ccccc12)C(=O)O

Experiments:
[1] = Drug uptake in human K562 cells assessed as membrane penetration by measuring increase in fluorescence intensity at 5 umol/L incubated for 2 hrs by flow cytometry relative to C9C; type: ADME, cell-based; conditions: k562, 2 h, 5 µM, dose 5 µmol/L
[2] = Drug uptake in human KU812 cells assessed as membrane penetration by measuring increase in fluorescence intensity at 5 umol/L incubated for 2 hrs by flow cytometry relative to C9C; type: ADME, cell-based; conditions: ku812, 2 h, 5 µM, dose 5 µmol/L
[3] = Drug uptake in human CCRF-CEM cells assessed as membrane penetration by measuring increase in fluorescence intensity at 5 umol/L incubated for 2 hrs by flow cytometry relative to C9C; type: ADME, cell-based; conditions: 5 µM, dose 5 µmol/L
[4] = Increase in membrane permeability of IMA-PROTAC in human K562 cells assessed as potentiation of IMA-PROTAC-induced Bcr-Abl degradation at PROTAC to compound concentration ratio of 1:5 incubated for 48 hrs in presence of 3 umol/L IMA-PROTAC by western blot analysis (reference value: 40%); type: functional
[5] = Interaction with IMA-PROTAC assessed as induction of assembly formation by transmission electron microscopy; type: physicochemical
K562 [6] = test: Increase in membrane permeability of IMA-PROTAC in human K562 cells assessed as potentiation of IMA-PROTAC-induced Bcr-Abl degradation at PROTAC to compound concentration ratio of 1:3 incubated for 48 hrs in presence of 3 umol/L IMA-PROTAC by western blot analysis; type: functional, cell-based
[7] = Cytotoxicity against human CCRF-CEM cells assessed as cell viability at 0.01 to 100 uM incubated for 48 hrs by MTT assay; type: toxicity, cell-based; conditions: dose 0.01-100 µM, read-out: Activity
[8] = Drug uptake in human THP-1 cells assessed as increase in fluorescence intensity at 10 umol/L incubated for 2 hrs by cell imaging based fluorescence microscopic analysis; type: ADME; conditions: thp-1, 2 h, 10 µM, dose 10 µmol/L
K562 [9] = test: Induction of apoptosis in human K562 cells assessed as necrotic cells at PROTAC to compound concentration ratio of 1:5 incubated for 48 hrs in presence of 3 umol/L IMA-PROTAC by AnnexinV-FITC/PI staining based flow cytometry (reference value: 0.1%); type: functional
K562 [10] = test: Increase in membrane permeability of IMA-PROTAC in human K562 cells assessed as potentiation of IMA-PROTAC-induced inhibition of STAT5 phosphorylation at PROTAC to compound concentration ratio of 1:5 incubated for 48 hrs in presence of 3 umol/L IMA-PROTAC by western blot analysis; type: functional, cell-based
[11] = Interaction with IMA-PROTAC assessed as induction of formation of micelle cluster with uniform and distinct spherical morphology by transmission electron microscopy; type: physicochemical
K562 [12] = test: Induction of apoptosis in human K562 cells assessed as late apoptotic cells at PROTAC to compound concentration ratio of 1:5 incubated for 48 hrs in presence of 3 umol/L IMA-PROTAC by AnnexinV-FITC/PI staining based flow cytometry (reference value: 0.01%); type: functional
[13] = Cytotoxicity against human KU812 cells assessed as cell viability at 0.01 to 100 uM incubated for 48 hrs by MTT assay; type: toxicity, cell-based; conditions: dose 0.01-100 µM, read-out: Activity
[14] = Stability of the compound in fetal bovine serum assessed as parent compound remaining measured after 8 hrs by HPLC-MS analysis; type: ADME, cell-free, Bos taurus; conditions: cattle, read-out: Stability
[15] = Cytotoxicity against human THP-1 cells assessed as reduction in cell viability at higher concentrations incubated for 48 hrs by MTT assay; type: toxicity, cell-based; conditions: read-out: INH
[16] = Stability of the compound in fetal bovine serum assessed as parent compound remaining measured after 36 hrs by HPLC-MS analysis; type: ADME, cell-free, Bos taurus; conditions: cattle, read-out: Stability
K562 [17] = test: Induction of apoptosis in human K562 cells assessed as early apoptotic cells at PROTAC to compound concentration ratio of 1:5 incubated for 48 hrs in presence of 3 umol/L IMA-PROTAC by AnnexinV-FITC/PI staining based flow cytometry (reference value: 0.03%); type: functional
[18] = Stability of the compound in fetal bovine serum assessed as parent compound remaining measured after 12 hrs by HPLC-MS analysis; type: ADME, cell-free, Bos taurus; conditions: cattle, read-out: Stability
[19] = Cytotoxicity against human K562 cells assessed as cell viability at 0.01 to 100 uM incubated for 48 hrs by MTT assay; type: toxicity, cell-based; conditions: dose 0.01-100 µM, read-out: Activity
K562 [20] = test: Induction of apoptosis in human K562 cells assessed as viable cells at PROTAC to compound concentration ratio of 1:5 incubated for 48 hrs in presence of 3 umol/L IMA-PROTAC by AnnexinV-FITC/PI staining based flow cytometry (reference value: 99.85%); type: functional

CC(C)C[C@@H]1NC(=O)[C@H](Cc2csc3ccccc23)NC(=O)[C@H](Cc2ccc(O)cc2)NC(=O)[C@H](Cc2ccccc2)NC(=O)[C@H](CCCNC(=N)N)NC(=O)[C@H](CCCCN)NC(=O)[C@H](CCC(=O)O)NC(=O)[C@H](CO)NC(=O)[C@H](CCCNC(=N)N)NC1=O (cyclo([Bta]LRSEKRFY))
fold change (FC) [1]: 5.04 | fold change (FC) [2]: 2.69

CC(C)C[C@@H]1NC(=O)[C@H](Cc2c[nH]c3ccccc23)NC(=O)[C@H](Cc2ccc(O)cc2)NC(=O)[C@H](Cc2ccccc2)NC(=O)CNC(=O)[C@H](CCCCN)NC(=O)[C@H](CC(=O)O)NC(=O)[C@H](CO)NC(=O)[C@H](CCCNC(=N)N)NC1=O (cyclo(DKGFYWLRS))
fold change (FC) [3]: 3.1

CC(C)C[C@@H]1NC(=O)[C@H](Cc2c[nH]c3ccccc23)NC(=O)[C@H](Cc2ccccc2)NC(=O)[C@H](Cc2ccccc2)NC(=O)CNC(=O)[C@H](CCCCN)NC(=O)[C@H](CCC(=O)O)NC(=O)[C@H](CO)NC(=O)[C@H](CCCNC(=N)N)NC1=O (cyclo(EKGFFWLRS))
fold change (FC) [1]: 2.8

CC(C)C[C@H](NC(=O)[C@H](Cc1c[nH]c2ccccc12)NC(=O)[C@H](Cc1ccc(O)cc1)NC(=O)[C@H](Cc1ccccc1)NC(=O)CNC(=O)[C@@H](N)CS)C(=O)N[C@@H](CCCNC(=N)N)C(=O)N[C@@H](CO)C(=O)N[C@@H](CS)C(=O)O (H-CGFYWLRSC-OH)
Activity [4]: 60% | Activity [5]: Not Active | Activity (K562 [6]): Active | viability at 48 h, up to 100 µM [7]: > 75% | Drug uptake [8]: Active | Activity (K562 [9]): 0.09% | Activity (K562 [10]): Active | Activity [11]: Not Active | Activity (K562 [12]): 7.46% | viability at 48 h, up to 100 µM [13]: > 75% | remaining at 8 h [14]: 100% | cytotoxicity at 48 h [15]: ~50% | remaining at 36 h [16]: 35% | Activity (K562 [17]): 6.26% | remaining at 12 h [18]: 80% | viability at 48 h, up to 100 µM [19]: > 75% | Activity (K562 [20]): 86.18%
